Data taken from patent EP0466030B1, “N-acyl dipeptides and their use” (DEGUSSA AG, priority 1990, dated 1992).
Where a SMILES comes first, the peptide text is derived from it. Bridges are numbered along the chain shown (N, C = ends). Roman numbers before positions name the chains, in order. The star is where a group is joined. Butyryl = CCCC(=O)*

Assays:
[1] = Ratten; Z. Ernährungswiss. 28 (1989), 32 - 35; cited from earlier work
[2] = system: L1210 Mäuse-Leukaemiezellen; test: Comparative cell growth experiment with supplemented culture medium; type: cell-based; conditions: for Zellwachstum: comparison among the three supplements L-Glutamin, L-Alanyl-L-glutamin, N-Acetyl-L-alanyl-L-glutamin; for Wachstum im Vergleich zum glutaminfreien Medium: supplemented medium versus glutamine-free medium
From the text: Weiterhin wurde überraschend festgestellt, daß N-Acyldipeptide als Quelle für die C-terminalen Aminosäuren in Nährmedien für Zellkulturen dienen können.

[3] = Cleavage of the substrate by pig kidney homogenate (decrease of substrate followed by HPLC); type: in vitro ADME, Schwein; conditions: for spezifische Aktivität des Nierenhomogenisats: 1 ml supernatant + 1 ml 0,1 M Tris/HCl (pH 7) + 1 ml 30 mM substrate solution, 37°C, HPLC; for schneller als N-Acetyl-L-tyrosin gespalten: in vitro, Schweinenierenhomogenisat, rate relative to N-Acetyl-L-tyrosin
Protocol: 0,1 Mol L-Alanyl-L-tyrosin wurden in 50 ml 2N Natronlauge gelöst. Bei 0°C wurden 0,11 Mol Acetanhydrid in 18 ml Tetrahydrofuran und 27,5 ml 4N Natronlauge so zugetropft, daß der pH-Wert des Reaktionsgemisches stets bei etwa 11 lag. Nach Beendigung der Zugabe wurde 1 Stunde lang nachgerührt, dann mit konzentrierter Salzsäure auf pH 1 angesäuert und das Volumen der Lösung auf die Hälfte eingeengt. Das N-Acetyl-L-alanyl-L-tyrosin kristallisierte aus, wurde abfiltriert, mit Wasser gewaschen und getrocknet. […] 1 ml des nach 30-minütiger Zentrifugation bei 10000 U/min erhaltenen Überstandes wurden mit 1 ml 0,1 M Tris/HCl (pH 7)-Puffer und 1 ml einer 30 mM Lösung des Substrates in 0,1 M Tris/HCl (pH7)-Puffer versetzt und bei 37°C inkubiert. Die zeitliche Abnahme der Substratkonzentration wurde durch HPLC verfolgt.

[4] = system: L1210 Mäuse-Leukaemiezellen; conditions: general statement on cells, no source or experiment given; cited from earlier work

CC(=O)NCC(=O)N[C@@H](CSSC[C@H](NC(=O)CNC(C)=O)C(=O)O)C(=O)O [Bis-(acetylglycyl)-L,L-cystin] (I: Ac-Gly-Cys-OH / II: Ac-Gly-Cys-OH; disulfide I:2-II:2)
Eignung als Cysteinquelle bei der parenteralen Ernährung [1]: nicht als Cysteinquelle geeignet

C[C@H](N)C(=O)N[C@@H](CCC(N)=O)C(=O)O [L-Alanyl-L-glutamin] (H-Ala-Gln-OH)
Zellwachstum [2]: kein signifikanter Unterschied
Wachstum im Vergleich zum glutaminfreien Medium [2]: deutlich erhöhtes Wachstum

NC(=O)CC[C@H](N)C(=O)O [L-Glutamin]
Zellwachstum [2]: kein signifikanter Unterschied
Wachstum im Vergleich zum glutaminfreien Medium [2]: deutlich erhöhtes Wachstum

CC(=O)N[C@@H](C)C(=O)N[C@@H](CCC(N)=O)C(=O)O [N-Acetyl-L-alanyl-L-glutamin] (Ac-Ala-Gln-OH)
Zellwachstum [2]: kein signifikanter Unterschied
Wachstum im Vergleich zum glutaminfreien Medium [2]: deutlich erhöhtes Wachstum
von den Zellen verwertet ([2]; utilisation by L1210 cells as glutamine source): sehr gut verwertet

CC(=O)N[C@@H](C)C(=O)N[C@@H](Cc1ccc(O)cc1)C(=O)O [N-Acetyl-L-alanyl-L-tyrosin] (Ac-Ala-Tyr-OH)
spezifische Aktivität des Nierenhomogenisats [3]: 420 nMol pro Minute und g Niere
schneller als N-Acetyl-L-tyrosin gespalten [3]: 10 mal

CC(=O)N[C@@H](CCC(N)=O)C(=O)O [N-Acetyl-L-glutamin]
von Zellen genutzt [4]: nicht oder nur sehr schlecht genutzt

CCCC(=O)N[C@@H](C)C(=O)N[C@@H](Cc1ccc(O)cc1)C(=O)O [N-Butyryl-L-alanyl-L-tyrosin] (Butyryl-Ala-Tyr-OH)
spezifische Aktivität des Nierenhomogenisats [3]: 660 nMol pro Minute und g Niere
schneller als N-Acetyl-L-tyrosin gespalten [3]: 15 mal
